According to patent publication US20240180900A1, “COMPOUNDS AND METHODS FOR THE TARGETED DEGRADATION OF ANDROGEN RECEPTOR” (Arvinas Operations, Inc., priority 2022, published 2024):

Columns and labels:
prostate = assay: 10-day prostate involution study in rats; assay type: in vivo, rat; conditions: enzalutamide 100 mg/kg/day orally, 10 days, intact rats
Method: Enzalutamide and Compound A were orally administered once daily at the indicated doses. After 10 days of treatment, the prostate tissue from each rat was isolated and weighed. Treatment groups (n=5 per group) were compared by one way ANOVA. Note: ns: not significant, *: p<0.05, **: p≤0.01.
To substantiate the on-target mechanism of Compound A, a prostate involution study was conducted in rats. […] Twenty-four hours after the last dose, the rats were euthanized, and the prostate organs were isolated and weighed.

VCaP tumor xenograft [1] = conditions: cited from earlier work
PSA = assay: intracellular PSA ELISA in VCaP cells; assay type: cell-based; conditions: Homo sapiens, CSS + 0.1 nM R1881, 48 hours, read-out: IC50, inhibiting PSA expression
Method: Intracellular prostate specific antigen (PSA) levels were determined using a PSA enzyme-linked immunosorbent assay (ELISA). […] The cell proliferation was determined using the CellTiter-Glo® assay. […] The CaspaseGlo® assay was carried out to measure the level of apoptosis in cells.
To evaluate the pharmacological effect of Compound A in vitro, PSA, cell proliferation, and apoptosis assays were carried out in VCaP cells.

VCaP tumor xenograft [2] = assay: VCaP tumor xenograft study in intact (non-castrated) mice; assay type: in vivo, mouse; conditions: enzalutamide 20 mg/kg orally QD for 21 days
Excerpt: To mimic higher androgen levels found in an incomplete testosterone suppression environment, intact (non-castrated) mice were employed for a VCaP tumor xenograft study.

cereblon = cereblon (Homo sapiens, UniProt Q96SW2); conditions: pomalidomide 10 μM
cereblon, sequence (Q96SW2 whole entry): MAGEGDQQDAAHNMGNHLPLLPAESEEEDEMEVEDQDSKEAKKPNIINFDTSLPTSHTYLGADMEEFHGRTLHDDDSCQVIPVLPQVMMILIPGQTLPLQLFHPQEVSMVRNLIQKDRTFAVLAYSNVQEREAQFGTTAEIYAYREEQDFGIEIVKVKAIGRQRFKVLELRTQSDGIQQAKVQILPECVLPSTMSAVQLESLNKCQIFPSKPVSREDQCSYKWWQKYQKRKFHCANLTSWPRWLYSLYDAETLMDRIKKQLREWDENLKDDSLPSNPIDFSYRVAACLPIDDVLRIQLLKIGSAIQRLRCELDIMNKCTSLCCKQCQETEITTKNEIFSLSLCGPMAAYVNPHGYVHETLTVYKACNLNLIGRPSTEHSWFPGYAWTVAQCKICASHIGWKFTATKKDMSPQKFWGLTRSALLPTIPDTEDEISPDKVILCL

Row | Structure (SMILES) | Mean (±SEM) prostate weights (prostate) | activity in the intact VCaP setting (published data) (VCaP tumor xenograft [1]) | IC50 (PSA) | tumor growth inhibition (TGI) (VCaP tumor xenograft [2]) | effect on Compound A mediated AR degradation (cereblon)
1 | CNC(=O)c1ccc(N2C(=S)N(c3ccc(C#N)c(C(F)(F)F)c3)C(=O)C2(C)C)cc1F [enzalutamide, reference compound] | 818 ± 170 mg | very modest activity, or no activity at all | 0.175 µM | 27% | 
2 | Nc1cccc2c1C(=O)N(C1CCC(=O)NC1=O)C2=O (centres unmarked) [pomalidomide] |  |  |  |  | blocked Compound A mediated degradation
